Experimental data: patent publication US9328099B2, “Cyanomethylpyrazole carboxamides as janus kinase inhibitors” (Merck Sharp & Dohme Corp., priority 2011, dated 2016)

Key:
[1] = target: JAK1 (Homo sapiens (Human), UniProt P23458); assay: Jak Biochemical HTRF Assay, JAK1; conditions: HTRF biochemical assay, GST-tagged catalytic domain; top concentration tested […]; read-out: JAK1 IC50
Source text: (§1) Jak Biochemical HTRF Assay Protocol
(§2) Subsequent reagent additions employed an Agilent Bravo.

[2] = target: JAK2 (Homo sapiens (Human), UniProt O60674); assay: Jak Biochemical HTRF Assay, JAK2; conditions: HTRF biochemical assay, GST-tagged catalytic domain; top concentration tested […]
Source text: as §1, §2

JAK2, sequence (O60674 849-1124): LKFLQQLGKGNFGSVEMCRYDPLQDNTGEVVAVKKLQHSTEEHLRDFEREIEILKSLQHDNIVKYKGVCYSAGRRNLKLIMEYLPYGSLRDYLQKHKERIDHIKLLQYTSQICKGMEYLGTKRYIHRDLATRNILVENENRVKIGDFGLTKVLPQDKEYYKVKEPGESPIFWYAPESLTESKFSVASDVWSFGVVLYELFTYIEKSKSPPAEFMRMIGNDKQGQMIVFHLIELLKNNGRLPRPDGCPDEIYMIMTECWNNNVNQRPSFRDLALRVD
JAK1, sequence (P23458 875-1153): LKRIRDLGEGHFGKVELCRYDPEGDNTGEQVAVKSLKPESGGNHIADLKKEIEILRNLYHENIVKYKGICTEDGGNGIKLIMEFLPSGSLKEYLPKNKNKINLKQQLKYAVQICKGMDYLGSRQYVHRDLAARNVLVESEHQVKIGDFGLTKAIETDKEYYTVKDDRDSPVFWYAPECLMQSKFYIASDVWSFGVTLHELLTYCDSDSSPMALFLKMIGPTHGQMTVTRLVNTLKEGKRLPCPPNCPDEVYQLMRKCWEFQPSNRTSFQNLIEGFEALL

Structure (SMILES) | IC50 [1] [nM] | IC50 [2] [nM]
CC(C)(C)COC(=O)N1CCC(CC#N)(n2cc(C(N)=O)c(Nc3ccccc3)n2)CC1 [Example 30-29, 2,2-dimethylpropyl 4-[4-carbamoyl-3-(phenylamino)-1H-pyrazol-1-yl]-4-(cyanomethyl)piperidine-1-carboxylate] | 6 | 249
N#CCC1(n2cc(C(N)=O)c(Nc3ccccc3)n2)CCN(C(=O)OC2CCCC2)CC1 [Example 30-30, cyclopentyl 4-[4-carbamoyl-3-(phenylamino)-1H-pyrazol-1-yl]-4-(cyanomethyl)piperidine-1-carboxylate] | 1 | 50
N#CCC1(n2cc(C(N)=O)c(Nc3ccccc3)n2)CCN(C(=O)OC2CCCCC2)CC1 [Example 30-31, cyclohexyl 4-[4-carbamoyl-3-(phenylamino)-1H-pyrazol-1-yl]-4-(cyanomethyl)piperidine-1-carboxylate] | 8 | 318
N#CCC1(n2cc(C(N)=O)c(Nc3ccccc3)n2)CCN(C(=O)OCc2cccc(F)c2)CC1 [Example 30-32, 3-fluorobenzyl 4-[4-carbamoyl-3-(phenylamino)-1H-pyrazol-1-yl]-4-(cyanomethyl)piperidine-1-carboxylate] | 4 | 88
N#CCC1(n2cc(C(N)=O)c(Nc3ccccc3)n2)CCN(C(=O)OCc2ccccc2F)CC1 [Example 30-33, 2-fluorobenzyl 4-[4-carbamoyl-3-(phenylamino)-1H-pyrazol-1-yl]-4-(cyanomethyl)piperidine-1-carboxylate] | 2 | 40
N#CCC1(n2cc(C(N)=O)c(Nc3ccccc3)n2)CCN(C(=O)OC2Cc3ccccc3C2)CC1 [Example 30-34, 2,3-dihydro-1H-inden-2-yl 4-[4-carbamoyl-3-(phenylamino)-1H-pyrazol-1-yl]-4-(cyanomethyl)piperidine-1-carboxylate] | 3 | 83
COCCOC(=O)N1CCC(CC#N)(n2cc(C(N)=O)c(Nc3ccccc3)n2)CC1 [Example 30-35, 2-methoxyethyl 4-[4-carbamoyl-3-(phenylamino)-1H-pyrazol-1-yl]-4-(cyanomethyl)piperidine-1-carboxylate] | 4 | 71
N#CCC1(n2cc(C(N)=O)c(Nc3ccccc3)n2)CCN(C(=O)OC2CCOC2)CC1 (centres unmarked) [Example 30-36, 4-carbamoyl-1-[4-(cyanomethyl)-1-{[(3R and 3S)-tetrahydrofuran-3-yloxy]carbonyl}piperidin-4-yl]-3-(phenylamino)-1H-pyrazol-2-ium] | 1 | 40
N#CCC1(n2cc(C(N)=O)c(Nc3ccccc3)n2)CCN(C(=O)OC2CCOCC2)CC1 [Example 30-37, tetrahydro-2H-pyran-4-yl 4-[4-carbamoyl-3-(phenylamino)-1H-pyrazol-1-yl]-4-(cyanomethyl)piperidine-1-carboxylate] | 3 | 103
N#CCC1(n2cc(C(N)=O)c(Nc3ccccc3)n2)CCN(C(=O)OCc2cccnc2)CC1 [Example 30-39, pyridin-3-ylmethyl 4-[4-carbamoyl-3-(phenylamino)-1H-pyrazol-1-yl]-4-(cyanomethyl)piperidine-1-carboxylate] | 2 | 38
N#CCC1(n2cc(C(N)=O)c(Nc3ccccc3)n2)CCN(C(=O)OCc2ccncc2)CC1 [Example 30-40, pyridin-4-ylmethyl 4-[4-carbamoyl-3-(phenylamino)-1H-pyrazol-1-yl]-4-(cyanomethyl)piperidine-1-carboxylate] | 2 | 58
CN1CCC(OC(=O)N2CCC(CC#N)(n3cc(C(N)=O)c(Nc4ccccc4)n3)CC2)CC1 [Example 30-42, 1-methylpiperidin-4-yl 4-[4-carbamoyl-3-(phenylamino)-1H-pyrazol-l-yl]-4-(cyanomethyl)piperidine-1-carboxylate] | 41 | 798
CN1CCN(CCOC(=O)N2CCC(CC#N)(n3cc(C(N)=O)c(Nc4ccccc4)n3)CC2)CC1 [Example 30-43, 2-(4-methylpiperazin-1-yl)ethyl 4-[4-carbamoyl-3-(phenylamino)-1H-pyrazol-1-yl]-4-(cyanomethyl)piperidine-1-carboxylate] | 12 | 318
CN1CCC(COC(=O)N2CCC(CC#N)(n3cc(C(N)=O)c(Nc4ccccc4)n3)CC2)CC1 [Example 30-44, (1-methylpiperidin-4-yl)methyl 4-[4-carbamoyl-3-(phenylamino)-1H-pyrazol-1-yl]-4-(cyanomethyl)piperidine-1-carboxylate] | 11 | 318
N#CCC1(n2cc(C(N)=O)c(Nc3ccc(F)cc3)n2)CCN(C(=O)OCCC(F)(F)F)CC1 [Example 30-45, 3,3,3-Trifluoropropyl 4-{4-carbamoyl-3-[(4-fluorophenyl)amino]-1H-pyrazol-1-yl}-4-(cyanomethyl)piperidine-1-carboxylate] | 3 | 97
N#CCC1(n2cc(C(N)=O)c(Nc3ccc(F)cc3)n2)CCN(C(=O)OC2CCOCC2)CC1 [Example 30-47, tetrahydro-2H-pyran-4-yl 4-{4-carbamoyl-3-[(4-fluorophenyl)amino]-1H-pyrazol-1-yl}-4-(cyanomethyl)piperidine-1-carboxylate] | 3 | 103
COCCOC(=O)N1CCC(CC#N)(n2cc(C(N)=O)c(Nc3ccc(F)cc3)n2)CC1 [Example 30-48, 2-methoxyethyl 4-{4-carbamoyl-3-[(4-fluorophenyl)amino]-1H-pyrazol-1-yl}-4-(cyanomethyl)piperidine-1-carboxylate] | 4 | 71
N#CCC1(n2cc(C(N)=O)c(Nc3ccnc(F)c3)n2)CCN(C(=O)OCC2CC2)CC1 [Example 30-49, Cyclopropylmethyl 4-{4-carbamoyl-3-[(2-fluoropyridin-4-yl)amino]-1H-pyrazol-1-yl}-4-(cyanomethyl)piperidine-1-carboxylate] | 0.3 | 18
N#CCC1(n2cc(C(N)=O)c(Nc3ccccc3)n2)CN(C(=O)OCCF)C1 [Example 30-50, 2-fluoroethyl 3-[4-carbamoyl-3-(phenylamino)-1H-pyrazol-1-yl]-3-(cyanomethyl)azetidine-1-carboxylate] | 2 | 27
CC(C)COC(=O)N1CC(CC#N)(n2cc(C(N)=O)c(Nc3ccccc3)n2)C1 [Example 30-51, 2-methylpropyl 3-[4-carbamoyl-3-(phenylamino)-1H-pyrazol-1-yl]-3-(cyanomethyl)azetidine-1-carboxylate] | 14 | 298
N#CCC1(n2cc(C(N)=O)c(Nc3ccccc3)n2)CN(C(=O)OC2CCCC2)C1 [Example 30-52, cyclopentyl 3-[4-carbamoyl-3-(phenylamino)-1H-pyrazol-1-yl]-3-(cyanomethyl)azetidine-1-carboxylate] | 3 | 76
N#CCC1(n2cc(C(N)=O)c(Nc3ccccc3)n2)CN(C(=O)OCc2ccccc2)C1 [Example 30-53, benzyl 3-[4-carbamoyl-3-(phenylamino)1H-pyrazol-1-yl]-3-(cyanomethyl)azetidine-1-carboxylate] | 11 | 262
